Results reported in patent publication US20030176327A1 (priority 2001, published 2003).
Structures can show the parent of a compound that is named as a salt.

Tests used:
Yersinia Pestis = type: cell-based
Clostridium botulinin = type: cell-based
[1] = tested on: Brucella abortis, B milletensis and B suis; type: cell-based
Francisella tularensis = type: cell-based
Burkholderia mallei = type: cell-based
Bacillus anthracis = type: cell-based
Clostridium perfringens = type: cell-based
B anthracis = settings: cited from earlier work
anthrax infection = settings: in vivo; cited from earlier work

## N[C@@H](C(=O)N[C@@H]1C(=O)N2C(C(=O)O)=C(Cl)CC[C@H]12)c1ccccc1.O [Loracarbef, (6R,7S)-7-[(R)-2-amino-2-phenylacetamido]-3-chloro-8-oxo-1-azabicyclo[4.2.0]oct-2-ene-2-carboxylic acid, monohydrate]
Yersinia Pestis
  Suitability against Yersinia Pestis: Yes
Clostridium botulinin
  Suitability against Clostridium botulinin: No
[1]
  Suitability against Brucella abortis, B milletensis and B suis: No
Francisella tularensis
  Suitability against Francisella tularensis: Yes
Burkholderia mallei
  Suitability against Burkholderia mallei: No
Bacillus anthracis
  Suitability against Bacillus anthracis: Yes
Clostridium perfringens
  Suitability against Clostridium perfringens: No

## CO/N=C(\C(=O)N[C@@H]1C(=O)N2C(C(=O)O)=C(COC(N)=O)CS[C@H]12)c1ccco1 [Cefuroxime]
Yersinia Pestis
  Suitability against Yersinia Pestis: Yes
Clostridium botulinin
  Suitability against Clostridium botulinin: No
[1]
  Suitability against Brucella abortis, B milletensis and B suis: No
Francisella tularensis
  Suitability against Francisella tularensis: Yes
Burkholderia mallei
  Suitability against Burkholderia mallei: No
Bacillus anthracis
  Suitability against Bacillus anthracis: Yes
Clostridium perfringens
  Suitability against Clostridium perfringens: No

## CC1=C(C(=O)O)N2C(=O)[C@@H](NC(=O)[C@H](N)c3ccccc3)[C@H]2SC1 [Cephalexin Monohydrate]
Yersinia Pestis
  Suitability against Yersinia Pestis: Yes
Clostridium botulinin
  Suitability against Clostridium botulinin: No
[1]
  Suitability against Brucella abortis, B milletensis and B suis: No
Francisella tularensis
  Suitability against Francisella tularensis: Yes
Burkholderia mallei
  Suitability against Burkholderia mallei: No
Bacillus anthracis
  Suitability against Bacillus anthracis: Yes
Clostridium perfringens
  Suitability against Clostridium perfringens: No

## NC[C@H]1O[C@H](O[C@H]2[C@H](O)[C@@H](O[C@H]3O[C@H](CO)[C@@H](O)[C@H](N)[C@H]3O)[C@H](N)C[C@@H]2N)[C@H](N)C[C@@H]1O [Tobramycin]
Yersinia Pestis
  Suitability against Yersinia Pestis: Yes
Clostridium botulinin
  Suitability against Clostridium botulinin: No
[1]
  Suitability against Brucella abortis, B milletensis and B suis: Yes
Francisella tularensis
  Suitability against Francisella tularensis: Yes
Burkholderia mallei
  Suitability against Burkholderia mallei: Yes
Bacillus anthracis
  Suitability against Bacillus anthracis: Yes
Clostridium perfringens
  Suitability against Clostridium perfringens: No

## Cc1nnc(SCC2=C(C(=O)O)N3C(=O)[C@@H](NC(=O)Cn4cnnn4)[C@H]3SC2)s1 [Cefazolin]
Yersinia Pestis
  Suitability against Yersinia Pestis: Yes
B anthracis
  Effective against B anthracis in vitro: effective
[1]
  Suitability against Brucella abortis, B milletensis and B suis: No
Francisella tularensis
  Suitability against Francisella tularensis: Yes
Burkholderia mallei
  Suitability against Burkholderia mallei: No
Bacillus anthracis
  Suitability against Bacillus anthracis: Yes

## O=C(N[C@H](CO)[C@H](O)c1ccc([N+](=O)[O-])cc1)C(Cl)Cl [chloramphenicol]
B anthracis
  Effective against B anthracis in vitro: effective

## N[C@@H](C(=O)N[C@@H]1C(=O)N2C(C(=O)O)=C(Cl)CS[C@H]12)c1ccccc1 [Cefaclor, 3-chloro-7-D-(2-phenylglycinamido)-3-cephem-4-carboxylic acid monohydrate]
Yersinia Pestis
  Suitability against Yersinia Pestis: Yes
Clostridium botulinin
  Suitability against Clostridium botulinin: No
[1]
  Suitability against Brucella abortis, B milletensis and B suis: No
Francisella tularensis
  Suitability against Francisella tularensis: Yes
Burkholderia mallei
  Suitability against Burkholderia mallei: No
Bacillus anthracis
  Suitability against Bacillus anthracis: Yes
Clostridium perfringens
  Suitability against Clostridium perfringens: No

## O=C(O)c1cn(C2CC2)c2cc(N3CCNCC3)c(F)cc2c1=O [ciprofloxacin]
Anthrax infection
  Efficacy in treatment of anthrax infection, animal models: excellent efficacy

## CC(=O)OCC1=C(C(=O)O)N2C(=O)[C@@H](NC(=O)Cc3cccs3)[C@H]2SC1 [Cephalothin]
Yersinia Pestis
  Suitability against Yersinia Pestis: Yes
Clostridium botulinin
  Suitability against Clostridium botulinin: No
[1]
  Suitability against Brucella abortis, B milletensis and B suis: No
Francisella tularensis
  Suitability against Francisella tularensis: Yes
Burkholderia mallei
  Suitability against Burkholderia mallei: No
Bacillus anthracis
  Suitability against Bacillus anthracis: Yes
Clostridium perfringens
  Suitability against Clostridium perfringens: No

## CCn1nc(C(=O)O)c(=O)c2cc3c(cc21)OCO3 [Cinoxacin]
Yersinia Pestis
  Suitability against Yersinia Pestis: Yes
Clostridium botulinin
  Suitability against Clostridium botulinin: No
[1]
  Suitability against Brucella abortis, B milletensis and B suis: No
Francisella tularensis
  Suitability against Francisella tularensis: Yes
Burkholderia mallei
  Suitability against Burkholderia mallei: No
Bacillus anthracis
  Suitability against Bacillus anthracis: Yes
Clostridium perfringens
  Suitability against Clostridium perfringens: No

## Cn1nnnc1SCC1=C(C(=O)O)N2C(=O)[C@@H](NC(=O)[C@H](O)c3ccccc3)[C@H]2SC1 [Cefamandole]
Yersinia Pestis
  Suitability against Yersinia Pestis: Yes
Clostridium botulinin
  Suitability against Clostridium botulinin: No
[1]
  Suitability against Brucella abortis, B milletensis and B suis: No
Francisella tularensis
  Suitability against Francisella tularensis: Yes
Burkholderia mallei
  Suitability against Burkholderia mallei: No
Bacillus anthracis
  Suitability against Bacillus anthracis: Yes
Clostridium perfringens
  Suitability against Clostridium perfringens: No

## CC[C@H]1OC(=O)[C@H](C)[C@@H](O[C@H]2C[C@@](C)(OC)[C@@H](O)[C@H](C)O2)[C@H](C)[C@@H](O[C@@H]2O[C@H](C)C[C@H](N(C)C)[C@H]2O)[C@](C)(O)C[C@@H](C)C(=O)[C@H](C)[C@@H](O)[C@]1(C)O [erythromycin]
B anthracis
  Effective against B anthracis in vitro: effective

## CCCCCCCCCC(=O)N[C@@H](Cc1c[nH]c2ccccc12)C(=O)N[C@H](CC(N)=O)C(=O)N[C@@H](CC(=O)O)C(=O)N[C@@H]1C(=O)NCC(=O)N[C@@H](CCCN)C(=O)N[C@@H](CC(=O)O)C(=O)N[C@H](C)C(=O)N[C@@H](CC(=O)O)C(=O)NCC(=O)N[C@H](CO)C(=O)N[C@@H]([C@H](C)CC(=O)O)C(=O)N[C@@H](CC(=O)c2ccccc2N)C(=O)O[C@@H]1C [Daptomycin, N-(1-oxodecyl)-L-tryptophyl-L-asparaginyl-L-A-aspartyl-L-threonylglycyl-L-ornithyl-L-A-aspartyl-D-alanyl-L-A-aspartylglycyl-D-seryl-threo-3-methyl-L-A-glutamyl-G-(2-aminophenyl)-G-oxo-L-A-aminobutanoicacid, E1-lactone]
Yersinia Pestis
  Suitability against Yersinia Pestis: No
Clostridium botulinin
  Suitability against Clostridium botulinin: Yes*
[1]
  Suitability against Brucella abortis, B milletensis and B suis: No
Francisella tularensis
  Suitability against Francisella tularensis: No
Burkholderia mallei
  Suitability against Burkholderia mallei: No
Bacillus anthracis
  Suitability against Bacillus anthracis: Yes
Clostridium perfringens
  Suitability against Clostridium perfringens: Yes**

## CN[C@H](CC(C)C)C(=O)N[C@H]1C(=O)N[C@@H](CC(N)=O)C(=O)N[C@H]2C(=O)N[C@H]3C(=O)N[C@H](C(=O)N[C@H](C(=O)O)c4cc(O)cc(O)c4-c4cc3ccc4O)[C@H](O[C@H]3C[C@](C)(N)[C@@H](O)[C@H](C)O3)c3ccc(c(Cl)c3)Oc3cc2cc(c3O[C@@H]2O[C@H](CO)[C@@H](O)[C@H](O)[C@H]2O[C@H]2C[C@](C)(NCc3ccc(-c4ccc(Cl)cc4)cc3)[C@@H](O)[C@H](C)O2)Oc2ccc(cc2Cl)[C@H]1O [Oritavancin, (4″R)-22-O-(3-amino-2,3,6-trideoxy-3-C-methyl-A-L-arabino-hexopyranosyl)-N3″-((4-chloro(1,1′-biphenyl)-4′-yl)methyl)vancomycin]
Yersinia Pestis
  Suitability against Yersinia Pestis: No
Clostridium botulinin
  Suitability against Clostridium botulinin: Yes*
[1]
  Suitability against Brucella abortis, B milletensis and B suis: No
Francisella tularensis
  Suitability against Francisella tularensis: No
Burkholderia mallei
  Suitability against Burkholderia mallei: No
Bacillus anthracis
  Suitability against Bacillus anthracis: Yes
Clostridium perfringens
  Suitability against Clostridium perfringens: Yes**

## penicillin
B anthracis
  Sensitivity of naturally occurring anthrax strains: sensitive

## CN[C@H](CC(C)C)C(=O)N[C@H]1C(=O)N[C@@H](CC(N)=O)C(=O)N[C@H]2C(=O)N[C@H]3C(=O)N[C@H](C(=O)N[C@H](C(=O)O)c4cc(O)cc(O)c4-c4cc3ccc4O)[C@H](O)c3ccc(c(Cl)c3)Oc3cc2cc(c3O[C@@H]2O[C@H](CO)[C@@H](O)[C@H](O)[C@H]2O[C@H]2C[C@](C)(N)[C@H](O)[C@H](C)O2)Oc2ccc(cc2Cl)[C@H]1O [Vancomycin HCl]
Yersinia Pestis
  Suitability against Yersinia Pestis: No
B anthracis
  Effective against B anthracis in vitro: effective
Clostridium botulinin
  Suitability against Clostridium botulinin: Yes*
[1]
  Suitability against Brucella abortis, B milletensis and B suis: No
Francisella tularensis
  Suitability against Francisella tularensis: No
Burkholderia mallei
  Suitability against Burkholderia mallei: No
Bacillus anthracis
  Suitability against Bacillus anthracis: Yes
Clostridium perfringens
  Suitability against Clostridium perfringens: Yes**
